From US6472198B1, “Slow release substrates for driving microbial transformations of environmental contaminants” (The State of Oregon Acting by and through the State Board …, priority 1998, dated 2002)

Experiments:
[1] = tested on: Pt. Mugu groundwater and aquifer solids microcosm; experiment: Anaerobic reductive dechlorination of TCE in Pt. Mugu microcosm amended with TBOS; format: cell-based
[2] = Abiotic hydrolysis of TBOS and TKEBS in sterilized pH buffered solutions; format: physicochemical
[3] = Hydrolysis period of slow release compounds in bioremediation studies; format: physicochemical; settings: TBOS to 1-butanol, TPOS to phenol
Text: These alcohols can then be used by the microorganisms to cometabolize halogenated organics, such as TCE, for example. As discussed in the Examples below, the decrease in TBOS in a poisoned (killed) control compared similarly to the nonpoisoned (live) microbially active system under anaerobic conditions. Microbial activity was indicated by the production of acetate, butanol, butyrate, and hydrogen in the live microcosms, and the lack of production in the poisoned control. […] Thus, TBOS is not directly degraded, but is first hydrolyzed by reactions with water to form 1-butanol, which can then be used to drive the aerobic cometabolism of chlorinated organics.

[4] = Solubility in water (statement); format: physicochemical
[5] = pH 7.8 (site groundwater), 30 °C, 10 mg/L

Q: For CCCCO[Si](OCCCC)(OCCCC)OCCCC [No. 2, Tetrabutoxysilane], which “duration of TCE transformation resulting from addition of only TBOS” value ([1]; TBOS 1 g/L added at start of test) is on record?
A: over 500 days

Q: What about the “persistence of TBOS in the microcosm” value ([1]; anaerobic Pt. Mugu microcosm, TBOS 1 g/L) of the same molecule?
A: over 450 days

Q: And the “1-butanol formed per TBOS hydrolyzed” value ([2]; 30 °C, 10 mg/L)?
A: 4 moles of 1-butanol per mole of TBOS

Q: And the “rate of transformation at pH 5 and pH 9 compared to pH 7” value ([2]; 30 °C, 10 mg/L)?
A: increased by a factor of two

Q: And the “Rates of Hydrolysis Based on 1-butanol production” value (shortened to “Rates … on 1-butanol production”) ([2]; pH 5.0, 30 °C, 10 mg/L)?
A: 0.19 µmol/day

Q: And the “Rates of Hydrolysis Based on TBOS degradation” value (“Rates … on TBOS degradation” below) ([2]; pH 5.0, 30 °C, 10 mg/L)?
A: -0.160 µmol/day

Q: What about the “effect of temperature on hydrolysis” value ([2]; pH 7, 10 mg/L, 15 °C vs 30 °C) of the same molecule?
A: Very little increase

Q: And the “Rates … on 1-butanol production” value ([2]; pH 7.0, 15 °C, 10 mg/L)?
A: 0.08 µmol/day

Q: And the “Rates … on TBOS degradation” value ([2]; pH 7.0, 15 °C, 10 mg/L)?
A: -0.060 µmol/day

Q: What about the “Rates … on 1-butanol production” value ([2]; pH 7.0, 30 °C, 10 mg/L) of the same molecule?
A: 0.08 µmol/day

Q: What about the “Rates … on TBOS degradation” value ([2]; pH 7.0, 30 °C, 10 mg/L) of the same molecule?
A: -0.062 µmol/day

Q: And the “factor of increase in rate of hydrolysis on ten-fold increase in concentration” value ([2]; pH 7, 30 °C, 10 mg/L to 100 mg/L)?
A: 4

Q: And the “Rates … on 1-butanol production” value ([2]; pH 7.0, 30 °C, 100 mg/L)?
A: 0.26 µmol/day

Q: And the “Rates … on TBOS degradation” value ([2]; pH 7.0, 30 °C, 100 mg/L)?
A: -0.208 µmol/day

Q: What about the “Rates … on 1-butanol production” value [2, 5] of the same molecule?
A: 0.16 µmol/day

Q: What about the “Rates … on TBOS degradation” value [2, 5] of the same molecule?
A: -0.110 µmol/day

Q: What about the “Rates … on 1-butanol production” value ([2]; pH 9.0, 30 °C, 10 mg/L) of the same molecule?
A: 0.22 µmol/day

Q: What about the “Rates … on TBOS degradation” value ([2]; pH 9.0, 30 °C, 10 mg/L) of the same molecule?
A: -0.151 µmol/day

Q: And the “period over which hydrolysis to the alcohol occurs” value [3]?
A: two month

Q: What about the solubility [4] of the same molecule?
A: very low
